Measurements reported in patent EP4711368A1 (priority 2023, dated 2024).
Where two headings read alike, the source gives them in different places.

Columns and labels:
[1] = tested on: SD rats; test: animal or person; assay type: in vivo; settings: iv; for Minimal effective anesthetic dose / Onset time / Righting feflex duration / Sedation Duration: rat, in vivo; for minimal effective dose: Rattus norvegicus
[2] = tested on: SD rats; settings: rat, in vivo; for MLD: iv; for Onset time: test concentration or dose not given here; for Righting feflex duration: test concentration or dose not given here; for Sedation Duration: test concentration or dose not given here
[3] = read-out: Minimal effective analgesic dose
[4] = read-out: Minimal effective anesthetic dose

| Structure (SMILES) | Minimal effective anesthetic dose [1] | Onset time [1] | Righting feflex duration [1] | Sedation Duration [1] | TI [2] | MLD [2] | minimal effective dose [1, 3] | minimal effective dose [1, 4] | TI ([2]; SD) | MLD ([2]; SD) |
| --- | --- | --- | --- | --- | --- | --- | --- | --- | --- | --- |
| Cc1cnc2n1-c1ccc(Br)cc1C(c1ccccn1)=NC2COC(=O)CN(C)C (stereo not drawn) [Compound 196] | 15 mg/kg | 0.2 to 1.4 min | 9.5 to 23.6 min | 214.5 to 403.5 min | 3.3 | 50 mg/kg | – | – | – | – |
| Brc1ccc2c(c1)C(c1ccccn1)=NN1CCN=C1N2 [Compound 323] | – | 0.95 to 1.07 min | 13.12 to 21.08 min | – | – | – | 30 mg/kg | 30 mg/kg | >1.3 | >40 mg/kg |
| CC[C@H](C)OC(=O)CN1N=C(c2ccccn2)c2cc(Br)ccc2N(C)C1=O [Compound 242] | – | 0.28 to 0.55 min | 5.05 to 18.42 min | 19.98 to 46.92 min | – | – | – | 7.5 mg/kg | 4 | 30 mg/kg |
| C=CC1(OC(=O)CN2N=C(c3ccccn3)c3cc(Br)ccc3N(C)C2=O)COC1 [Compound 254] | – | 0.60 to 0.65 min | 0.78 to 3.10 min | 29.25 to 40.22 min | – | – | – | 10 mg/kg | 2 | 20 mg/kg |
| CN1C(=O)N(COC(=O)CCCl)N=C(c2ccccn2)c2cc(Br)ccc21 [Compound 290] | – | 0.45 min | 6.63 min | 18.08 min | – | – | 15 mg/kg | 15 mg/kg | 1.3 | 20 mg/kg |
| CN1C(=O)N(CC(=O)OC2(C)COC2)N=C(c2ccccn2)c2cc(Br)ccc21 [Compound 253] | – | 0.87 to 0.88 min | 1.38 to 11.07 min | 10.13 to 31.28 min | – | – | 20 mg/kg | 10 mg/kg | 3 | 30 mg/kg |
| CN1C(=O)N(COC(=O)N2CCCC2)N=C(c2ccccn2)c2cc(Br)ccc21 [Compound 295] | – | 0.20 to 0.52 min | 3.70 to 13.25 min | 34.23 to 172.50 min | – | – | – | 20 mg/kg | 2 | 40 mg/kg |
| CC(C)OC(=O)CN1N=C(c2ccccn2)c2cc(Br)ccc2N(C)C1=O [Compound 239] | – | 0.17 to 0.75 min | 1.30 to 11.58 min | 17.72 to 23.57 min | – | – | 10 mg/kg | 5 mg/kg | 8 | 40 mg/kg |
| CC(C)n1nnc(CCN2N=C(c3ccccn3)c3cc(Br)ccc3N(C)C2=O)n1 [Compound 267] | – | 0.72 min | 0.28 min | 12.33 min | – | – | – | 20 mg/kg | 2 | 40 mg/kg |
| CCOc1nonc1CCN1N=C(c2ccccn2)c2cc(Br)ccc2N(C)C1=O [Compound 274] | – | 0.18 min | 4.57 min | 25.87 min | – | – | – | 27.4 mg/kg | >1 | >27.4 mg/kg |
| CC(OC(=O)CN1N=C(c2ccccn2)c2cc(Br)ccc2N(C)C1=O)C1CC1 (stereo not drawn) [Compound 250] | – | 0.53 min | 13.62 min | 21.55 min | – | – | – | 20 mg/kg | >1 | – |
| COC(=O)CC1N=C(c2ccccn2)c2cc(Br)ccc2N(C)C1=O (stereo not drawn) [Compound 113] | 15.0 mg/kg | 0.2 to 0.3 min | 0.7 to 29.5 min | 20.6 to 77.7 min | 2.7 | 40 mg/kg | – | – | – | – |
| C=C1N=C(c2ccccn2)c2cc(Br)ccc2N(C)C1=O [Compound 36] | 10.0 mg/kg | 0.4 to 0.9 min | 0.7 to 4.1 min | 8.6 to 14.7 min | 1.9 | 18.7 mg/kg | – | – | – | – |
| CC(C)OC(=O)CCN1N=C(c2ccccn2)c2cc(Br)ccc2N(C)C1=O [Compound 260] | – | 0.12 min | 7.52 min | 55.52 min | – | – | 40 mg/kg | 40 mg/kg | 1.4 | 55 mg/kg |
| CN1C(=O)C(CCC(=O)OC2COC2)N=C(c2ccccn2)c2cc(Br)ccc21 (stereo not drawn) [Compound 16] | 5.0 mg/kg | 0.2 to 0.5 min | 0.6 to 1.7 min | 3.2 to 5.3 min | >4.5 | >22.5 mg/kg | – | – | – | – |
| CC(C)C(=O)OCN1N=C(c2ccccn2)c2cc(Br)ccc2N(C)C1=O [Compound 287] | – | 0.32 to 0.43 min | 0.63 to 7.53 min | 44.20 to 46.25 min | – | – | – | 10 mg/kg | 3 | 30 mg/kg |
